# Measurements from PMC6927504, “Screening of House Dust from Chinese Homes for Chemicals with Liver X Receptors Binding Activities and Characterization of Atherosclerotic Activity Using an in Vitro Macrophage Cell Line and ApoE^−/− Mice” (Environmental Health Perspectives, 2019).
# pEC50, pIC50: −log10 of the molar value. Where two headings read alike, the source gives them in different places.
# Experiments:
# human LXRα [1] = target: T1, human LXRα (Homo sapiens, UniProt Q13133); assay: cell-based
# T1 construct: expressed in transfected cells; host or cells: Saccharomyces cerevisiae Y187
# T1 sequence (Q13133 205-447): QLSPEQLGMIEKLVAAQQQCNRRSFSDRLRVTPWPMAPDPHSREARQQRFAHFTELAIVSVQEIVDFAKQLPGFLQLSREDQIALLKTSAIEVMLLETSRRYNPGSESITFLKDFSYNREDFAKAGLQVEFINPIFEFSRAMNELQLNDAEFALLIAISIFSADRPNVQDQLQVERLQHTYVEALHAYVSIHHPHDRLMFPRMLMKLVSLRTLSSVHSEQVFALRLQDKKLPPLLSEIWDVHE
# human LXRβ [2] = target: T2, human LXRβ (Homo sapiens, UniProt P55055); assay: cell-based
# T2 sequence (P55055 219-460): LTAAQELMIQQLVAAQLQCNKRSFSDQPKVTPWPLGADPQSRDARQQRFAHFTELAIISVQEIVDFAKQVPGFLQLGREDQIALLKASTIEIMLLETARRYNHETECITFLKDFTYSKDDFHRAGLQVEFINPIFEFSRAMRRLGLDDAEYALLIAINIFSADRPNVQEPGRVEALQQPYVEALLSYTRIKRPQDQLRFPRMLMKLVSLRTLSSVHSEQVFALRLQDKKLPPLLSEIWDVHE
# human LXRβ [3] = target: T2, human LXRβ; assay: Yeast two-hybrid assay (LXRβ LBD with coactivator TIF2, β-galactosidase readout)
# atherosclerotic mice = test system: atherosclerotic mice; design: method as in Joseph et al. 2002; conditions: ref Joseph et al. 2002; cited from earlier work
# ABCG1 = assay: qRT-PCR of LXR target gene ABCG1 in RAW264.7 macrophages; type: cell-based; conditions: TO901317 at 5–100 nM with TPHP 10,000 nM
# Experimental: (§1) RAW264.7 cells were obtained from the National Infrastructure of Cell Line Resource of Beijing, China, and the cells used for the experiment were cultured for at least three passages. Dulbecco’s Modified Eagle’s Medium (DMEM)-F12 medium containing 10% fetal bovine serum (FBS) was employed to culture the RAW264.7 cells. RAW264.7 cells were incubated at 37°C with 5% carbon dioxide. The RAW264.7 cells were plated at 2.5×10^5 cells/well (6-well plates), 6.0×10^4 cells/well (24-well plates), and 10^4 cells/well (96-well plates). The RAW264.7 cells were plated and grown overnight; then the medium was removed and fresh DMEM-F12 contained with 0.1% DMSO (control; n=3 ) or TPHP at the concentrations of 1–20,000 nM ( n=3 per group) was added. […] Then the cells were used for the quantitative reverse transcription (qRT)-PCR, cellular cholesterol efflux assay, and foam cell formation experiment.
# (§2) Total RNA was isolated from RAW264.7 cells and mouse peritoneal macrophages using TRIzol reagent according to the manufacturer’s instructions. Then a Nanovue Plus™ spectrophotometer (GE Healthcare Life Science) was used to analyze the concentration, quality, and purity of the RNA. Total RNA ( 1μg ) was mixed with oligo deoxythymine (dT) ( 1μL ) at 70°C for 5 min and then combined with a mixture containing Moloney murine leukemia virus (MMLV) reverse transcriptase ( 1μL ), deoxy-ribonucleoside triphosphate (dNTP) ( 1.25μL ), Recombinant RNasin® Ribonuclease Inhibitor (Promega) ( 0.65μL ), and MMLV buffer ( 5μL ) at 42°C for 60 min. The SYBR® Green PCR Kit (TOYOBO) was used for RT-PCR analysis. Real-time fluorescence detection was performed using the StepOnePlus™ sequence detection system (Applied Biosystems). […] The following primers were designed and purchased from Sangon Biotech:
# (§3) • actin: 5′-[…]-3′ and 5′-[…]-3′ ATP-binding cassette transporter A1 (ABCA1): 5′-[…]-3′ and 5′-[…]-3′ • ATP-binding cassette transporter G1 (ABCG1): 5′-[…]-3′ and 5′-[…]-3′.
# ABCA1 = assay: qRT-PCR of LXR target gene ABCA1 in RAW264.7 macrophages; type: cell-based; conditions: TO901317 at 5–100 nM with TPHP 10,000 nM
# Experimental: as §1, §2, §3
# human LXRα [4] = target: T3, human LXRα (Homo sapiens, UniProt Q13133); type: binding
# T3 construct: the full-length human LXRα gene was amplified by polymerase chain reaction (PCR); made in house; host or cells: E. coli BL21
# T3 sequence (Q13133 1-447): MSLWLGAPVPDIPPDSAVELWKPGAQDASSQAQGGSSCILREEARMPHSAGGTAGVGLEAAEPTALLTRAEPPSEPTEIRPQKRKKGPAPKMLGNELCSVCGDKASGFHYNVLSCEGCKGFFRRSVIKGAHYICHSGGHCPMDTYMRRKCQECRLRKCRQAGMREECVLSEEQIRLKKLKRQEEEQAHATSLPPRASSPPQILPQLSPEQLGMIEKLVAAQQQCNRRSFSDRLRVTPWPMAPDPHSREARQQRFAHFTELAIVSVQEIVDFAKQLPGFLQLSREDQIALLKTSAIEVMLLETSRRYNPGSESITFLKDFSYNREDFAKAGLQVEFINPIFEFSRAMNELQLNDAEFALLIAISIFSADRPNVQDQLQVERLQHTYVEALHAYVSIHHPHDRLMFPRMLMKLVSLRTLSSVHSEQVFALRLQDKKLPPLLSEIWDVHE
# [5] = dust standard reference material SRM2585
# [6] = range over indoor dust samples (Table S4)
structure (smiles),measurement,setting,value
"CCCCC(CC)COP(=O)(Oc1ccccc1)Oc1ccccc1 (centres unmarked) [EHDPP, 2-ethylhexyl diphenyl phosphate]",pIC50,human LXRα [1],5.24
same,Contribution to the LXRα-antagonist activity of SRM2585,human LXRα [1]; [5],3.01%
same,Share of the LXRα-antagonist activity of indoor dust explained by the chemical,human LXRα [1]; [6],0.01–25.02%
same,pIC50,human LXRβ [2],5.66
same,Contribution to the LXRβ-antagonist activity of SRM2585,human LXRβ [3]; [5],1.55%
same,Share of the LXRβ-antagonist activity of indoor dust explained by the chemical,human LXRβ [3]; [6],0.01–22.92%
O=C(O)Cc1cccc(OCCCN(Cc2cccc(C(F)(F)F)c2Cl)CC(c2ccccc2)c2ccccc2)c1 [GW3965],Atherosclerotic plaques,atherosclerotic mice,promoted regression of atherosclerotic plaques
same,Foam cell formation,atherosclerotic mice,inhibited foam cell formation
"O=[N+]([O-])c1ccc(O)cc1 [PNP, p-nitrophenol]",pEC50,"human LXRα [1]; agonist mode, β-galactosidase activity, n=3",4.85
same,pEC50,human LXRβ [3],4.82
"CCOC(=O)c1ccc(CN(Cc2ccc(-c3cccc(S(C)(=O)=O)c3)cc2)S(=O)(=O)c2c(C)cc(C)cc2C)o1 [SR9238, reference compound]",pIC50,human LXRα [1]; read-out: IC50 for LXRα (antagonist activity),6.08
same,pIC50,human LXRβ [2],6.35
O=S(=O)(c1ccccc1)N(CC(F)(F)F)c1ccc(C(O)(C(F)(F)F)C(F)(F)F)cc1 [TO901317],"ABCG1 gene expression in cells co-exposed to TPHP, versus TPHP alone",ABCG1,dose-dependently higher
same,"ABCA1 gene expression in cells co-exposed to TPHP, versus TPHP alone",ABCA1,dose-dependently higher
same,Average percentage pulled down of the spiked concentration,human LXRα [4]; His-TF-LXRα group,89%
same,Average percentage pulled down of the spiked concentration,human LXRα [4]; control group (His-TF protein without LXRα),10%
same,Recovery in pull-down by recombinant LXRα,human LXRα [4]; spiked at 0.25 μg/L,100%±3%
same,Recovery in pull-down by recombinant LXRα,human LXRα [4]; spiked at 2.5 μg/L,85%±5%
same,Recovery in pull-down by recombinant LXRα,human LXRα [4]; spiked at 25 μg/L,80%±0.7%
same,Recovery in pull-down by recombinant LXRα,human LXRα [4]; spiked at 250 μg/L,92%±4%
